Numbers after ± are expanded uncertainties.

Data on 10 compounds can be found in the NIST ThermoML archive (doi:10.1021/je7003512).

Data set [1] is described as follows: refractive index (Na D-line) (dimensionless). The note with it: 298.15 K; 101.33 kPa; Liquid; Standard Abbe refractometry.
For data set [2] the following is noted: 298.15 K; 101.33 kPa; Liquid.
The nature of data set [3]: refractive index (Na D-line) (dimensionless); xn = mol fraction of the nth substance listed. To be noted: 298.15 K, 101 kPa, Liquid, Standard Abbe refractometry.

Consider `C=COCCC` [propyl vinyl ether], for which the refractive index – broadly, the speed of light in vacuum divided by its phase velocity in the sample – in data set [1] was found to be 1.39094 ± 0.00078. The mass density – broadly, the mass of a sample divided by its volume – in data set [2] was 762.98 ± 1.2 kg/m3.
In the case of `CC(C)CC(C)(C)C` [2,2,4-trimethylpentane], the refractive index in data set [1] came out at 1.39267 ± 0.00078. For the same compound, the mass density in data set [2] is recorded as 688.18 ± 1.3 kg/m3.
Regarding `C=COCCC` [propyl vinyl ether] + CCO, the refractive index in data set [3] (x1 = 0.0499) came out at 1.36372 ± 0.00078; in data set [3] (x1 = 0.1), 1.3655 ± 0.00078; in data set [3] (x1 = 0.2002), 1.36949 ± 0.00078; in data set [3] (x1 = 0.2996) it was 1.37356 ± 0.00078; in data set [3] (x1 = 0.4004), 1.37689 ± 0.00078; in data set [3] (x1 = 0.5006), 1.38018 ± 0.00079. The refractive index in data set [3] (x1 = 0.6005) came to 1.38262 ± 0.00078; in data set [3] (x1 = 0.7005), 1.38517 ± 0.00078; in data set [3] (x1 = 0.8002), 1.38724 ± 0.00078; in data set [3] (x1 = 0.8997), 1.38925 ± 0.00078; in data set [3] (x1 = 0.9492) it was 1.3901 ± 0.00078; in data set [3] (x1 = 1), 1.39094 ± 0.00078.
Regarding `CCO` [ethanol], the refractive index in data set [1] is 1.36161 ± 0.00078. Further, the mass density in data set [2] turned out to be 785.32 ± 1.2 kg/m3.
With `C=COCCC` [propyl vinyl ether] + CC(C)CC(C)(C)C, the refractive index in data set [3] (x1 = 0.0503) is listed as 1.39117 ± 0.00078; in data set [3] (x1 = 0.1011), 1.39096 ± 0.00078; in data set [3] (x1 = 0.2002), 1.39064 ± 0.00078; in data set [3] (x1 = 0.3002) it was 1.39044 ± 0.00078; in data set [3] (x1 = 0.3995), 1.39004 ± 0.00078; in data set [3] (x1 = 0.4998), 1.38988 ± 0.00078. The refractive index in data set [3] (x1 = 0.6003) came to 1.38967 ± 0.00078; in data set [3] (x1 = 0.7004), 1.38964 ± 0.00078; in data set [3] (x1 = 0.7998) it was 1.38978 ± 0.00078; in data set [3] (x1 = 0.9002) it was 1.39013 ± 0.00078; in data set [3] (x1 = 0.9503), 1.39035 ± 0.00078; in data set [3] (x1 = 1), 1.39094 ± 0.00078.
Turning to `CCO` [ethanol] + C=COCCC, in data set [3] (x2 = 0), the refractive index was 1.36161 ± 0.00078.
Take `CCO` [ethanol] + CC(C)CC(C)(C)C: in data set [3] (x1 = 1), the refractive index is listed as 1.36161 ± 0.00078.
In the case of `CO` [methanol], the refractive index in data set [1] turned out to be 1.3267 ± 0.00082. Further, the mass density in data set [2] is 786.54 ± 1.2 kg/m3.
For the compound `CC(C)CC(C)(C)C` [2,2,4-trimethylpentane] + CCO, the refractive index is on record as 1.39267 ± 0.00078 in data set [3] (x2 = 0); 1.39087 ± 0.00078 in data set [3] (x2 = 0.052); 1.38995 ± 0.00078 in data set [3] (x2 = 0.1002); 1.38855 ± 0.00078 in data set [3] (x2 = 0.199); 1.38682 ± 0.00078 in data set [3] (x2 = 0.2992); 1.38458 ± 0.00078 in data set [3] (x2 = 0.3991). Also, the refractive index in data set [3] (x2 = 0.5005) is listed as 1.38228 ± 0.00078; in data set [3] (x2 = 0.6006), 1.37947 ± 0.00078; in data set [3] (x2 = 0.7002), 1.37613 ± 0.00078; in data set [3] (x2 = 0.8006) it was 1.37214 ± 0.00078; in data set [3] (x2 = 0.8998), 1.36728 ± 0.00078; in data set [3] (x2 = 0.9503), 1.36436 ± 0.00078.
For the compound `CC(C)CC(C)(C)C` [2,2,4-trimethylpentane] + C=COCCC, the refractive index in data set [3] (x2 = 0) is 1.39267 ± 0.00078.
